{
  "source": "paper PMC2731040",
  "about": "(BMC Clinical Pharmacology, 2009)",
  "key": {"[1]": {"tested_on": "nondependent cocaine-experienced subjects", "assay": "Physiologic measures during cocaine challenge sessions", "type": "in vivo, human", "conditions": "for Systolic Blood Pressure, Peak change: Mean ± SD, 12 subjects", "procedure": "Heart rate, systolic and diastolic blood pressure were measured using a cardiovascular monitor (Dinamap by Critikon, Vital Signs Monitor 1846 SX). Rate pressure product was calculated as the product of systolic blood pressure and heart rate. Respiration rate was measured by counting the number of inhalations per minute. These vital signs were determined with the patient in a supine position for at least 10 minutes.\nHeart rate, blood pressure, respiration rate, skin and core temperature were recorded at specific times during the study. During infusions, measures were obtained pre-dose and at 0.17, 0.5, 0.75, 1, 1.5, 2, 2.5, 3, 3.5, 4, 4.25, 4.5, 5, 6, 8, 12, 18, 24, 36, 48, and 72 hours after dosing. The electrocardiogram was monitored continuously during the infusion and for 4 hours after the termination of the intravenous cocaine infusion. EKG tracings were recorded at each data collection point.\n(§1) The time courses of physiologic and subjective data were analyzed by repeated measures analysis of variance (ANOVA). Treatment conditions (Sessions 1 and 2) and observation times (hours post-dose) were considered within-subject factors. Change scores (post-dose minus pre-dose values) were used in most analyses. Raw score were used where indicated. After a significant F test, pairwise comparisons of treatment conditions were performed using the least squares means analysis. Peak effects within a session were determined for each subject and each variable and analyzed using a one-factor repeated measures ANOVA. Effects were considered statistically significant at p = 0.05. Data were adjusted for sphericity using the Huynh-Feldt adjustment factor. Huynh-Feldt-corrected significance values are reported."}, "[2]": {"tested_on": "nondependent cocaine-experienced subjects", "assay": "Subjective measures (verbal ratings, visual analog scales, POMS) during cocaine challenge sessions", "type": "in vivo, human", "conditions": "for Cocaine Craving (0–100), Peak change / Global Intoxication (0–100), Peak change: verbal rating; for Bad Drug Effect (0–100), Peak change / Good Drug Effect (0–100), Peak change: visual analog scale", "source_text": "Verbal ratings of global intoxication and craving (on a scale of 0 to 100) were obtained at the same time points as the physiologic measures, with 0 representing no drug effect and 100 representing the highest level of intoxication or craving.\nVisual analog scales were used to rate the degree of drug liking by moving an arrow along a 10 cm line marked at opposite ends as 0 (not at all) and 100 (extreme) using a hand-held computer (Tandy 102). Items rated on the visual analog scale included \"good drug effect\" and \"bad drug effect,\" and were obtained prior to cocaine infusion and at 0.17, 0.5, 0.75, 1, 1.5, 2, 2.5, 3, 3.5, 4, 4.25, 4.5, 5, 6, and 8 hours after dosing.\nThe Profile of Mood States (POMS) assessed mood changes in Anger, Confusion, Fatigue, Tension, and Vigor on a scale from 0 to 4, where 0 indicated \"no effect\" and 4 indicates \"extremely strong\". Ratings were obtained prior to cocaine infusion and at 1, 3, and 6 hours after dosing.\nas §1"}, "[3]": {"conditions": "Session 1: first cocaine infusion, before selegiline"}, "[4]": {"conditions": "Session 2: second cocaine infusion, after one week of selegiline STS"}, "[5]": {"conditions": "both cocaine challenge sessions, p < 0.01"}},
  "data": [
    {"smiles": "COC(=O)[C@H]1[C@@H](OC(=O)c2ccccc2)C[C@@H]2CC[C@H]1N2C", "note": "[Cocaine, cocaine]", "values": [
      {"measurement": "Core Temperature, Peak Time", "setting": "[1]; [3]", "value": "4.5 ± 1.6", "unit": "Hr Postdose"},
      {"measurement": "Core Temperature, Peak change", "setting": "[1]; [3]", "value": "0.7 ± 0.2", "unit": "°C"},
      {"measurement": "Diastolic Blood Pressure, Peak Time", "setting": "[1]; [3]", "value": "2.8 ± 2.4", "unit": "Hr Postdose"},
      {"measurement": "Diastolic Blood Pressure, Peak change", "setting": "[1]; [3]", "value": "10 ± 5", "unit": "mmHg"},
      {"measurement": "Heart Rate, Peak Time", "setting": "[1]; [3]", "value": "0.8 ± 0.9", "unit": "Hr Postdose"},
      {"measurement": "Heart Rate, Peak change", "setting": "[1]; [3]", "value": "26 ± 10", "unit": "beats/min"},
      {"measurement": "Rate Pressure Product, Peak Time", "setting": "[1]; [3]", "value": "1.4 ± 1.5", "unit": "Hr Postdose"},
      {"measurement": "Rate Pressure Product, Peak change", "setting": "[1]; [3]", "value": "4224 ± 1638", "unit": "SBP*HR"},
      {"measurement": "Respiration Rate, Peak Time", "setting": "[1]; [3]", "value": "0.9 ± 1.3", "unit": "Hr Postdose"},
      {"measurement": "Respiration Rate, Peak change", "setting": "[1]; [3]", "value": "3.8 ± 4.0", "unit": "inhal/min"},
      {"measurement": "Skin Temperature, Peak Time", "setting": "[1]; [3]", "value": "0.8 ± 0.4", "unit": "Hr Postdose"},
      {"measurement": "Skin Temperature, Peak change", "setting": "[1]; [3]", "value": "-5.4 ± 2.7", "unit": "°C"},
      {"measurement": "Systolic Blood Pressure, Peak Time", "setting": "[1]; [3]", "value": "2.2 ± 1.9", "unit": "Hr Postdose"},
      {"measurement": "Systolic Blood Pressure, Peak change", "setting": "[1]; Session 1: first cocaine infusion, day 1, before selegiline", "value": "17 ± 8", "unit": "mmHg"},
      {"measurement": "Core Temperature, Peak Time", "setting": "[1]; [4]", "value": "4.2 ± 1.9", "unit": "Hr Postdose"},
      {"measurement": "Core Temperature, Peak change", "setting": "[1]; [4]", "value": "0.7 ± 0.5", "unit": "°C"},
      {"measurement": "Diastolic Blood Pressure, Peak Time", "setting": "[1]; [4]", "value": "2 ± 2", "unit": "Hr Postdose"},
      {"measurement": "Diastolic Blood Pressure, Peak change", "setting": "[1]; [4]", "value": "12 ± 6", "unit": "mmHg"},
      {"measurement": "Heart Rate, Peak Time", "setting": "[1]; [4]", "value": "0.9 ± 1.7", "unit": "Hr Postdose"},
      {"measurement": "Heart Rate, Peak change", "setting": "[1]; [4]", "value": "27 ± 12", "unit": "beats/min"},
      {"measurement": "Rate Pressure Product, Peak Time", "setting": "[1]; [4]", "value": "0.9 ± 1.6", "unit": "Hr Postdose"},
      {"measurement": "Rate Pressure Product, Peak change", "setting": "[1]; [4]", "value": "4437 ± 2333", "unit": "SBP*HR"},
      {"measurement": "Respiration Rate, Peak Time", "setting": "[1]; [4]", "value": "0.4 ± 0.3", "unit": "Hr Postdose"},
      {"measurement": "Respiration Rate, Peak change", "setting": "[1]; [4]", "value": "3.8 ± 3.6", "unit": "inhal/min"},
      {"measurement": "Skin Temperature, Peak Time", "setting": "[1]; [4]", "value": "1.0 ± 1.2", "unit": "Hr Postdose"},
      {"measurement": "Skin Temperature, Peak change", "setting": "[1]; [4]", "value": "-5 ± 3.2", "unit": "°C"},
      {"measurement": "Systolic Blood Pressure, Peak Time", "setting": "[1]; [4]", "value": "1.9 ± 1.7", "unit": "Hr Postdose"},
      {"measurement": "Systolic Blood Pressure, Peak change", "setting": "[1]; Session 2: second cocaine infusion, day 11, after one week of selegiline STS patch 6 mg/24 hours", "value": "17 ± 9", "unit": "mmHg"},
      {"measurement": "Skin temperature compared to baseline", "setting": "[1]; [5]", "value": "decreased significantly"},
      {"measurement": "Systolic blood pressure, heart rate, and rate pressure product compared to baseline", "setting": "[1]; [5]", "value": "increased significantly"},
      {"measurement": "Diastolic blood pressure, respiration rate, and core temperature", "setting": "[1]; cocaine either alone or with selegiline", "value": "did not alter"},
      {"measurement": "Bad Drug Effect, Peak Time", "setting": "[2]; [3]", "value": "1.9 ± 2.3", "unit": "Hr Postdose"},
      {"measurement": "Cocaine Craving, Peak Time", "setting": "[2]; [3]", "value": "1.1 ± 1.3", "unit": "Hr Postdose"},
      {"measurement": "Global Intoxication, Peak Time", "setting": "[2]; [3]", "value": "0.7 ± 1", "unit": "Hr Postdose"},
      {"measurement": "Good Drug Effect, Peak Time", "setting": "[2]; [3]", "value": "0.9 ± 1.5", "unit": "Hr Postdose"},
      {"measurement": "POMS Anger (0–28), Peak change", "setting": "[2]; [3]", "value": "2.8 ± 6.4"},
      {"measurement": "POMS Anger, Peak Time", "setting": "[2]; [3]", "value": "6 ± 0", "unit": "Hr Postdose"},
      {"measurement": "POMS Confusion (0–20), Peak change", "setting": "[2]; [3]", "value": "2.5 ± 2.8"},
      {"measurement": "POMS Confusion, Peak Time", "setting": "[2]; [3]", "value": "6 ± 0", "unit": "Hr Postdose"},
      {"measurement": "POMS Depression (0–64), Peak change", "setting": "[2]; [3]", "value": "3 ± 6.5"},
      {"measurement": "POMS Depression, Peak Time", "setting": "[2]; [3]", "value": "3 ± 0", "unit": "Hr Postdose"},
      {"measurement": "POMS Fatigue (0–28), Peak change", "setting": "[2]; [3]", "value": "5.9 ± 5.9"},
      {"measurement": "POMS Fatigue, Peak Time", "setting": "[2]; [3]", "value": "6 ± 0", "unit": "Hr Postdose"},
      {"measurement": "POMS Tension (0–28), Peak change", "setting": "[2]; [3]", "value": "7.5 ± 6.1"},
      {"measurement": "POMS Tension, Peak Time", "setting": "[2]; [3]", "value": "1 ± 0", "unit": "Hr Postdose"},
      {"measurement": "POMS Vigor (0–32), Peak change", "setting": "[2]; [3]", "value": "-3.6 ± 3.4"},
      {"measurement": "POMS Vigor, Peak Time", "setting": "[2]; [3]", "value": "6 ± 0", "unit": "Hr Postdose"},
      {"measurement": "Cocaine Craving (0–100), Peak change", "setting": "[2]; [3]", "value": "33 ± 25"},
      {"measurement": "Global Intoxication (0–100), Peak change", "setting": "[2]; [3]", "value": "57 ± 27"},
      {"measurement": "Bad Drug Effect (0–100), Peak change", "setting": "[2]; [3]", "value": "46 ± 31"},
      {"measurement": "Good Drug Effect (0–100), Peak change", "setting": "[2]; [3]", "value": "66 ± 23"},
      {"measurement": "Bad Drug Effect, Peak Time", "setting": "[2]; [4]", "value": "1.4 ± 1.9", "unit": "Hr Postdose"},
      {"measurement": "Cocaine Craving, Peak Time", "setting": "[2]; [4]", "value": "0.6 ± 0.7", "unit": "Hr Postdose"},
      {"measurement": "Global Intoxication, Peak Time", "setting": "[2]; [4]", "value": "0.6 ± 0.9", "unit": "Hr Postdose"},
      {"measurement": "Good Drug Effect, Peak Time", "setting": "[2]; [4]", "value": "1 ± 1.3", "unit": "Hr Postdose"},
      {"measurement": "POMS Anger, Peak Time", "setting": "[2]; [4]", "value": "6 ± 0", "unit": "Hr Postdose"},
      {"measurement": "POMS Confusion (0–20), Peak change", "setting": "[2]; [4]", "value": "2.7 ± 4.7"},
      {"measurement": "POMS Confusion, Peak Time", "setting": "[2]; [4]", "value": "3 ± 0", "unit": "Hr Postdose"},
      {"measurement": "POMS Depression (0–64), Peak change", "setting": "[2]; [4]", "value": "1.5 ± 2.4"},
      {"measurement": "POMS Depression, Peak Time", "setting": "[2]; [4]", "value": "3 ± 0", "unit": "Hr Postdose"},
      {"measurement": "POMS Fatigue (0–28), Peak change", "setting": "[2]; [4]", "value": "2.8 ± 5.3"},
      {"measurement": "POMS Fatigue, Peak Time", "setting": "[2]; [4]", "value": "6 ± 0", "unit": "Hr Postdose"},
      {"measurement": "POMS Tension (0–28), Peak change", "setting": "[2]; [4]", "value": "4.8 ± 3.9"},
      {"measurement": "POMS Tension, Peak Time", "setting": "[2]; [4]", "value": "1 ± 0", "unit": "Hr Postdose"},
      {"measurement": "POMS Vigor (0–32), Peak change", "setting": "[2]; [4]", "value": "-3.9 ± 6.1"},
      {"measurement": "POMS Vigor, Peak Time", "setting": "[2]; [4]", "value": "6 ± 0", "unit": "Hr Postdose"},
      {"measurement": "POMS Anger (0–28), Peak change", "setting": "[2]; Session 2: second cocaine infusion, after one week of selegiline STS, significantly different from Session 1 (p < 0.03)", "value": "-2.1 ± 5.7"},
      {"measurement": "Cocaine Craving (0–100), Peak change", "setting": "[2]; [4]", "value": "20 ± 21"},
      {"measurement": "Global Intoxication (0–100), Peak change", "setting": "[2]; [4]", "value": "53 ± 23"},
      {"measurement": "Bad Drug Effect (0–100), Peak change", "setting": "[2]; [4]", "value": "55 ± 25"},
      {"measurement": "Good Drug Effect (0–100), Peak change", "setting": "[2]; [4]", "value": "60 ± 21"},
      {"measurement": "Global intoxication, verbal ratings of craving, and good drug effect compared to baseline", "setting": "[2]; both cocaine challenge sessions", "value": "increased"}
    ]}
  ]
}
